Experiment in all cases: MIC, solid dilution method
One experiment relates to E. ae 14186. It counts as cell-based, Enterobacter aerogenes. Conditions: Klebsiella aerogenes; E. ae 14186; MHA agar, 37° C., 16-20 hours; read-out: MIC. On the procedure:
(§1) The above-mentioned glycerol-preserved strains were taken out from the −80° C. refrigerator, streaked and inoculated on MHA plates, labeled, and cultured overnight in a 37° C. incubator.
(§2) The inoculum was prepared directly from bacterial suspension, and several recovered colonies were picked and directly prepared into a bacterial suspension with a turbidity of No. 0.5 McFarland units in normal saline, and a 10-fold dilution was made during inoculation.
(§3) 6 bottles of MHA culture medium 500 mL/bottle were prepared, and the pH was adjusted to 7.2-7.4, sterilized at 121° C. for 15 min, and the medium was placed in a 55° C. water bath to keep warm.
(§4) Sterile blank petri dishes were taken, and marked with each FL drug/concentration according to 2-fold dilution, and 10 concentrations of each drug starting from 8 μg/mL were tested.
(§5) […]; 20 mL was aspirated and added to a petri dish consistent with the mark, and then 20 mL of MHA culture medium was added to the rest of the drug-containing culture medium, mixed evenly, that is, the 2-fold diluted drug-containing culture medium; 20 mL was aspirated and added to the petri dish consistent with the mark, and then diluted to the 10th concentration and the […] respectively by repeating the above-mentioned steps, and then poured into the petri dish.
(§6) 4 bacterial control petri dishes without drug were prepared at the same time as a control.
(§7) The positioning needle and the inoculation needle were installed according to the order of placement of the colony on the inoculation plate. After inoculation, a bacterial solution circle was formed on the petri dish. After the bacterial solution was absorbed by the agar, the petri dish was placed in an incubator at 37° C. for overnight incubation (16-20 hours), and then taken out.
(§8) The minimum inhibitory concentrations of the compounds against the CRE and CSE strains were determined by the solid dilution method, and the results are shown in Tables 3 and 4.

A further experiment concerns E. coli 11256. It is filed as cell-based. To be noted: Escherichia coli; E. coli 11256; MHA agar, 37° C., 16-20 hours; read-out: MIC. On the procedure:
as §1, §2, §3, §4, §5, §6, §7, §8

The next experiment relates to Escherichia coli 11119. It counts as cell-based. Conditions: E. coli 11119, CRE clinical isolate, MHA agar, 37° C., 16-20 hours, read-out: MIC. On the procedure:
as §1, §2, §3, §4, §5, §6, §7, §8

A further experiment relates to Escherichia coli 13897. It is filed as cell-based. To be noted: E. coli 13897, CRE clinical isolate, MHA agar, 37° C., 16-20 hours, read-out: MIC. On the procedure:
as §1, §2, §3, §4, §5, §6, §7, §8

For the next experiment, the system named is Escherichia coli 14828. It is filed as cell-based. To be noted: E. coli 14828, CRE clinical isolate, MHA agar, 37° C., 16-20 hours, read-out: MIC. On the procedure:
as §1, §2, §3, §4, §5, §6, §7, §8

The subject of a further experiment is Klebsiella oxytoca 12391. It counts as cell-based. To be noted: K. ox 12391, CRE clinical isolate, MHA agar, 37° C., 16-20 hours, read-out: MIC. How it is done: as §1, §2, §3, §4, §5, §6, §7, §8
Another experiment deals with Klebsiella oxytoca 14151. It counts as cell-based. To be noted: K. ox 14151, CRE clinical isolate, MHA agar, 37° C., 16-20 hours, read-out: MIC. On the procedure:
as §1, §2, §3, §4, §5, §6, §7, §8

In another experiment the test system is Klebsiella oxytoca 14153. It is filed as cell-based. To be noted: K. ox 14153, CRE clinical isolate, MHA agar, 37° C., 16-20 hours, read-out: MIC. How it is done:
as §1, §2, §3, §4, §5, §6, §7, §8

A further experiment deals with Klebsiella oxytoca 6777. It counts as cell-based. To be noted: K. ox 6777, CRE clinical isolate, MHA agar, 37° C., 16-20 hours, read-out: MIC. How it is done:
as §1, §2, §3, §4, §5, §6, §7, §8

The subject of experiment [1] is Escherichia coli ATCC25922. It is filed as cell-based. To be noted: E. coli ATCC25922, standard strain, MHA agar, 37° C., 16-20 hours, read-out: MIC. How it is done: (§9) (1) Standard strains: Escherichia coli BAA-2452, Escherichia coli ATCC25922, Klebsiella pneumoniae BAA-1705; all purchased from ATCC.
as §1, §2, §3, §4, §5, §6, §7, §8

The subject of experiment [2] is Escherichia coli BAA-2452. It is filed as cell-based. Conditions: BAA2452, E. coli BAA-2452, standard strain, MHA agar, 37° C., 16-20 hours, read-out: MIC. On the procedure: as §9, §1, §2, §3, §4, §5, §6, §7, §8
In experiment [3] the test system is Klebsiella pneumoniae BAA-1705. It is filed as cell-based. To be noted: BAA1705, K.p BAA-1705, standard strain, MHA agar, 37° C., 16-20 hours, read-out: MIC. How it is done:
as §9, §1, §2, §3, §4, §5, §6, §7, §8

For experiment [4], the system named is Klebsiella pneumoniae 11544. It counts as cell-based. To be noted: K.p 11544, CRE clinical isolate, MHA agar, 37° C., 16-20 hours, read-out: MIC. On the procedure: (§10) (2) Clinical isolated strains: CRE Klebsiella pneumoniae 5846, 11544, 12559, 13249 and CSE Klebsiella pneumoniae 8733, a total of 5 strains;
as §1, §2, §3, §4, §5, §6, §7, §8

The subject of experiment [5] is Klebsiella pneumoniae 12559. It counts as cell-based. To be noted: K.p 12559, CRE clinical isolate, MHA agar, 37° C., 16-20 hours, read-out: MIC. On the procedure: as §10, §1, §2, §3, §4, §5, §6, §7, §8
The subject of experiment [6] is Klebsiella pneumoniae 13249. It counts as cell-based. Conditions: K.p 13249, CRE clinical isolate, MHA agar, 37° C., 16-20 hours, read-out: MIC. On the procedure:
as §10, §1, §2, §3, §4, §5, §6, §7, §8

The subject of experiment [7] is Klebsiella pneumoniae 5846. It is filed as cell-based. To be noted: K.p 5846, CRE clinical isolate, MHA agar, 37° C., 16-20 hours, read-out: MIC. On the procedure: as §10, §1, §2, §3, §4, §5, §6, §7, §8
Experiment [8] deals with Klebsiella pneumoniae 8733. It counts as cell-based. To be noted: K.p 8733, CSE clinical isolate, MHA agar, 37° C., 16-20 hours, read-out: MIC. On the procedure: as §10, §1, §2, §3, §4, §5, §6, §7, §8
Experiment [9] has as its system Acinetobacter baumannii 6383. It counts as cell-based. Conditions: A.B 6383, CRE clinical isolate, MHA agar, 37° C., 16-20 hours, read-out: MIC. How it is done: (§11) CRE Acinetobacter baumannii 8476, 6383, a total of 2 strains; CRE Serratia marcescens 14541, a total of 1 strain; all collected in the Department of Infectious Diseases, West China Hospital, Chengdu, Sichuan Province, and kept in our laboratory.
as §1, §2, §3, §4, §5, §6, §7, §8

Experiment [10] deals with Acinetobacter baumannii 8476. It is filed as cell-based. Conditions: A.B 8476, CRE clinical isolate, MHA agar, 37° C., 16-20 hours, read-out: MIC. How it is done: as §11, §1, §2, §3, §4, §5, §6, §7, §8
Experiment [11] deals with Serratia marcescens 14541. It is filed as cell-based. Conditions: Sma 14541, CRE clinical isolate, MHA agar, 37° C., 16-20 hours, read-out: MIC. How it is done:
as §11, §1, §2, §3, §4, §5, §6, §7, §8

Values after ≈ are worked out from the molar mass of the structure shown. Bounds are passed on as bounds.

In the case of `CC1(C)[C@H](NC(=O)/C(=N\O[C@@H](COc2ccc(C(=N)N[C@@H]3CCCNC3)cc2)C(=O)O)c2csc(N)n2)C(=O)N1OS(=O)(=O)O` [AIC499, reference compound], the MIC with E. ae 14186 was 1 µg/mL (≈ 1.5 µM); in the experiment on E. coli 11256 it was 0.06 µg/mL (≈ 0.0897 µM); in the experiment with Escherichia coli 11119 it was more than 8 µg/mL; in the experiment with Escherichia coli 13897, 0.25 µg/mL (≈ 0.374 µM); with Escherichia coli 14828, 0.5 µg/mL (≈ 0.748 µM); in the experiment with Klebsiella oxytoca 12391, 1 µg/mL (≈ 1.5 µM). In addition, the MIC with Klebsiella oxytoca 14151 came to 0.5 µg/mL (≈ 0.748 µM); in the experiment with Klebsiella oxytoca 14153 it was 1 µg/mL (≈ 1.5 µM); with Klebsiella oxytoca 6777 it was 0.5 µg/mL (≈ 0.748 µM); in experiment [1] it was 0.03 µg/mL (≈ 0.0449 µM); in [2], 0.5 µg/mL (≈ 0.748 µM); in [3], 1 µg/mL (≈ 1.5 µM). The MIC is more than 8 µg/mL in [4]; 0.5 µg/mL (≈ 0.748 µM) in [5]; more than 8 µg/mL in experiment [6]; 0.25 µg/mL (≈ 0.374 µM) in [7]; 0.25 µg/mL (≈ 0.374 µM) in [8]; 8 µg/mL (≈ 12 µM) in experiment [9]. The MIC is 2 µg/mL (≈ 2.99 µM) in [10] and more than 8 µg/mL in [11].
In the case of `CC1(C)[C@H](NC(=O)/C(=N\O[C@@H](COc2ccc3c(c2)CN(C(=N)N(CCCN)CCCN)C3)C(=O)O)c2csc(N)n2)C(=O)N1OS(=O)(=O)O` [Compound 32], the MIC was 0.125 µg/mL (≈ 0.169 µM) with E. ae 14186; less than 0.015 µg/mL in the experiment on E. coli 11256; 4 µg/mL (≈ 5.4 µM) in the experiment on Escherichia coli 11119; 0.06 µg/mL (≈ 0.081 µM) in the experiment on Escherichia coli 13897; 0.06 µg/mL (≈ 0.081 µM) in the experiment with Escherichia coli 14828; 0.125 µg/mL (≈ 0.169 µM) in the experiment with Klebsiella oxytoca 12391. Besides, the MIC in the experiment with Klebsiella oxytoca 14151 is 0.125 µg/mL (≈ 0.169 µM); in the experiment on Klebsiella oxytoca 14153, 0.125 µg/mL (≈ 0.169 µM); in the experiment on Klebsiella oxytoca 6777, 0.125 µg/mL (≈ 0.169 µM); in [1] it was less than 0.015 µg/mL; in experiment [2], 0.25 µg/mL (≈ 0.337 µM); in [3], 0.125 µg/mL (≈ 0.169 µM). The MIC was determined as 2 µg/mL (≈ 2.7 µM) in experiment [4]; 0.125 µg/mL (≈ 0.169 µM) in experiment [5]; 4 µg/mL (≈ 5.4 µM) in experiment [6]; 0.06 µg/mL (≈ 0.081 µM) in experiment [7]; 0.06 µg/mL (≈ 0.081 µM) in experiment [8]; 2 µg/mL (≈ 2.7 µM) in experiment [9]. Also, the MIC was determined as 2 µg/mL (≈ 2.7 µM) in experiment [10] and 4 µg/mL (≈ 5.4 µM) in [11].
On to `CC1(C)[C@H](NC(=O)/C(=N\O[C@@H](COc2ccc3c(c2)CN(C(=N)N[C@@H]2CCCNC2)C3)C(=O)O)c2csc(N)n2)C(=O)N1OS(=O)(=O)O` [Compound 41], for which the MIC in the experiment with E. ae 14186 stood at 0.25 µg/mL (≈ 0.352 µM); with E. coli 11256, 0.03 µg/mL (≈ 0.0423 µM); with Escherichia coli 11119 it was 4 µg/mL (≈ 5.64 µM); in the experiment with Escherichia coli 13897, 0.06 µg/mL (≈ 0.0845 µM); in the experiment on Escherichia coli 14828 it was 0.125 µg/mL (≈ 0.176 µM); with Klebsiella oxytoca 12391, 0.25 µg/mL (≈ 0.352 µM). Besides, the MIC was 0.25 µg/mL (≈ 0.352 µM) in the experiment on Klebsiella oxytoca 14151; 0.25 µg/mL (≈ 0.352 µM) in the experiment on Klebsiella oxytoca 14153; 0.25 µg/mL (≈ 0.352 µM) with Klebsiella oxytoca 6777; less than 0.015 µg/mL in experiment [1]; 0.25 µg/mL (≈ 0.352 µM) in experiment [2]; 0.25 µg/mL (≈ 0.352 µM) in [3]. In addition, the MIC in experiment [4] is more than 8 µg/mL; in experiment [5], 0.125 µg/mL (≈ 0.176 µM); in experiment [6], more than 8 µg/mL; in experiment [7] it was 0.125 µg/mL (≈ 0.176 µM); in experiment [8], 0.125 µg/mL (≈ 0.176 µM); in experiment [9], 4 µg/mL (≈ 5.64 µM). The minimal inhibitory concentration (MIC) in experiment [10] is 2 µg/mL (≈ 2.82 µM); in experiment [11], more than 8 µg/mL.

(Values after patent US12491180B2, “Application of compound in treating pneumonia” (SHENZHEN OPTIMUM BIOLOGICAL TECHNOLOGY CO., LTD., priority 2019, dated 2025).)
